From US8476290B2, “Compound having spiro-bonded cyclic group and use thereof” (Ono Pharmaceutical Co., Ltd., priority 2009, dated 2013)

Key:
[1] = target: T1, CXCR4 (Homo sapiens, UniProt P61073); experiment: Inhibition of binding human SDF-1 to CEM cells; settings: 125I-SDF-1, CEM cells, 4° C., 60 minutes; read-out: concentration showing 50% of an inhibition ratio
T1 construct: a human T cell strain in which CXCR4 is known to be expressed; endogenous in cells; host or cells: CEM cells (human T cell strain)
T1 sequence (P61073 whole entry): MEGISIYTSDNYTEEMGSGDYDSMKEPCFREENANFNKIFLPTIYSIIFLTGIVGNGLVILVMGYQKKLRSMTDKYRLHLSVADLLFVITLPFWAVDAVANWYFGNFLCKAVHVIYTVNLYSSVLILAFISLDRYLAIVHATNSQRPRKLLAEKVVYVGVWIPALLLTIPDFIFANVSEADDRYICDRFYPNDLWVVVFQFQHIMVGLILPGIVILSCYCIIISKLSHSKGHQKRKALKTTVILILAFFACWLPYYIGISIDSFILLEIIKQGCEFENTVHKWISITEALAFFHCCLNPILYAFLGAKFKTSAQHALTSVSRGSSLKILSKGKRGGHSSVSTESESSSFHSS
Experimental: Specifically, as a system of screening a compound that inhibits the binding between SDF-1 and CXCR4, for example a system of measuring the binding between iodine-labeled SDF-1 and a human T cell strain in which CXCR4 is known to be expressed is operable.
To human T cell strain CEM cells in a binding buffer (containing 2-[4-(2-Hydroxyethyl)-1-piperadinyl]ethansulfonic acid; HEPES and BSA), the test compound and ^125I-SDF-1 (PerkinElmer) were added and the mixture was incubated at 4° C. for 60 minutes. The reacted CEM cells were rapidly filtrated with a GF/B membrane filter plate (Packard) to adsorb. The plate was washed with phosphate buffered saline (hereinafter abbreviated to PBS) three times and then dried. Microscint+20 (Packard) was added thereto. An amount of the radioactivity bound to the CEM cells was measured using Top Count (Packard) and inhibition ratio (%) of the test compound was calculated according to the following equation: Inhibition={(Et−Ea)/(Et−Ec)}×100 [Equation 2] Et: Amount of radioactivity when the test compound is not added, Ec: Amount of radioactivity when non-radioactive SDF-1 (Pepro Tech) is added in an amount of 1,000 times as much as ^125I-SDF-1 as a test compound, and Ea: Amount of radioactivity when the test compound is added.

[2] = system: CHL/IU (cell line derived from a Chinese hamster lung); experiment: Phospholipid accumulation measurement (phospholipidosis induction); assay type: cell-based; settings: NBD-PE, about 48 hours, at 400 μM (maximum treatment concentration); positive = 25% or more of maximum increase rate of amiodarone
Experimental: 100 µL/well as required (1 dose 2 wells) of cell suspension of CHL/IU (cell line derived from a Chinese hamster lung) (7×10^4 cells/mL) prepared by MEM (minimum essential medium) culture medium was added to a 96-well plate (96-well clear-bottom plate), and cultured for about 24 hours. After culture, the supernatant of the 96-well plate was removed, and the 100 μL/well compounds of each concentration dissolved and suspended in a minimum essential medium (MEM) including 25 μM nitrobenzoxazole dipalmitoyl phosphatidylethanolamine (NBD-PE) (hereinafter abbreviated to a NPD-PE medium) were added and treated for about 48 hours. The treatment concentrations of each compound were set to be 5, 50, 100, 200 and 400 μM. The positive control substance was set to be amiodarone hydrochloride, and the treatment concentrations were set to be 1.25, 2.5, 5, 10 and 20 μM. In addition, 5-well untreated controls (only MEM) and 5-well NBD-PE controls (made by means of adding a 1/100 amount of DMSO to the NBD-PE culture medium) were set per compound, and cultured in the same manner. After finishing the culture, the cultures were washed twice with PBS (−) 100 μL/well, and the MEM (100 μL) was added to all of the treatment wells including two empty wells for WST-1 background controls and cultured for about half an hour. The fluorescence intensities of each well were measured by using a microplate reader (manufactured by Molecular Devices Inc., SPECTRA max M2; the excitation wavelength 485 nm/fluorescence wavelength 535 nm). Using the average values of each dose×2 wells, a phospholipid increase rate (%) to the NBD-PE control was calculated by using the following calculating formula: Rate of increase of phospholipid accumulation (%)=100×{(test substance fluorescence intensity−non-treated control fluorescence intensity)/(NBD-PE control fluorescence intensity−non-treated control fluorescence intensity)} 3. Cytotoxicity Test 96-well plate measured in the phospholipid accumulation measurement was measured by means of Plate Reader (manufactured by Molecular Devices Inc., SPECTRA max M2) with the main wavelength of 450 nm and the correct wavelength of 690 nm to calculate a Pre value. An amount of 5 μL/well of Premix WST-1 was added to each of the 96-well plates by which Pre measurement was conducted. After culture for 2 to 4 hours, the 96-well plate was measured as well as the Pre measurement to calculate an Aft value. Then, the background control value was subtracted from the each measured value. A value which was calculated by subtracting the Pre value from the Aft value was used, then the cell growth rate (%) was calculated by using the following calculating formula: Cell growth rate (%)=100×{(test substance OD)/(NBD-PE control OD)} 4. Determination A test dose that indicated value of 25% or more of the maximum phospholipid accumulation increase rate of amiodarone which was the positive control was determined as positive. In addition, the dose whose cell growth rate was equal to or less than 50% in the cytotoxicity test was not used for determination of existence or nonexistence of a phospholipidosis inductive effect.

[3] = Blood kinetic test and time (T90) to maintain the IC90 value; assay type: in vivo, Crl:CD(SD) Rat; settings: time the plasma concentration stays at the PBMC IC90 value or more; rat, intravenous 1 mg/kg
Experimental: A test compound was weighed, dissolved in WellSolve (trade name; manufactured by Celeste Corporation)/water/physiological saline=1/9/10 which was heated at 60° C. and adjusted to 20 mg/mL. Thereafter, the test compound was diluted by 10 times with distilled water for injection, and further diluted by 2 times with physiological saline. Then, intravenous administration was performed by rapid single administration of an intravenously administered solution (1 mg/kg) from the tail vein of Crl:CD(SD) Rat (male, manufactured by CHARLES RIVER LABORATORIES JAPAN, INC). The administration is conducted under fasting conditions; water is freely ingested. A 0.35 mL blood sample is taken from cervical vein by using Heparinized Syringe at 5 minutes, 15 minutes, 30 minutes, 1 hour, 2 hours, 4 hours, 6 hours, 8 hours, and 24 hours after administration. The obtained blood is stored in ice, and after centrifugation at 12,000 rpm for 5 minutes, blood plasma is fractionated. An internal standard solution (100 μL) and acetonitrile (2 mL) was added to 100 μL of plasma, followed by stirring and further centrifugation at 2,500 rpm for 10 minutes. The supernatant was desiccated by a centrifugal thickener and then 150 μL of an aqueous 67% dimethyl sulfoxide solution was added to the residue thereby dissolving again the residue, and 20 μL of the resultant solution was analyzed by LC/MS/MS.
Analysis by LC/MS/MS was carried out under the following conditions.
A curve of the compound concentration in plasma versus the time of each compound was adapted to a 1 or 2 compartment model using pharmacokinetic analysis software WinNonlin (trade name) (ver4.0.1, Pharsight Corporation).

[4] = system: X4-HIV-1 strains (for example, HIV-1NL4.3 strains); experiment: HIV infection inhibitory test using PBMC; assay type: cell-based; settings: human PBMC stimulated with PHA and IL-2, culture 7 days, culture supernatant
Experimental: Human PBMC (peripheral blood mononuclear cells) was isolated from HIV-negative healthy persons and subjected to stimulated culture in the presence of PHA (Phytohemagulutinin) and IL-2. Stimulated PBMC was inoculated in each of 96-well microplates and X^4-HIV-1 strains (for example, HIV-1NL4.3 strains) were exposed in the co-presence of a test compound. After culturing for 7 days, a reverse transcriptase activity of HIV-1 in the culture supernatant was measured and an inhibitory ratio (%) of the test compound was calculated by the following calculation formula, and a concentration (IC90 value) showing a 90% inhibitory ratio was determined. Inhibition={(Et−Ec)/Et}×100 [Equation 1] Et: reverse transcriptase activity value in the absence of a test compound Ec: reverse transcriptase activity value in the presence of a test compound

Compound | IC50 [1] [nM] | T90 [3] [h] | IC90 value (concentration showing a 90% inhibitory ratio of HIV-1 reverse transcriptase activity) [4] [nM] | phospholipidosis induction activity (determination) [2]
CCC(CC)N1CCC2(CC1)CC(C(=O)O)N(Cc1ccc(CN(Cc3ncc[nH]3)Cc3ncc[nH]3)cc1)C2 (centres unmarked) [Example 5(5), 2-(4-{[bis(1H-imidazol-2-ylmethyl)amino]methyl}benzyl)-8-(1-ethylpropyl)-2,8-diazaspiro[4.5]decane-3-carboxylic acid] | 3 | 91 | 0.27 | negative
CCC(CC)N1CCC2(CC1)C[C@@H](C(=O)O)N(Cc1ccc(CN(Cc3ncc[nH]3)Cc3ncc[nH]3)cc1)C2 [Example 32(7), (3S)-2-(4-{[bis(1H-imidazol-2-ylmethyl)amino]methyl}benzyl)-8-(1-ethylpropyl)-2,8-diazaspiro[4.5]decane-3-carboxylic acid] | 3.2 | – | 0.23 | negative
CCC(CC)N1CCC2(CC1)C[C@H](C(=O)O)N(Cc1ccc(CN(Cc3ncc[nH]3)Cc3nccn3C)cc1)C2 [Example 37(6), (3R)-8-(1-ethylpropyl)-2-[4-({(1H-imidazol-2-ylmethyl)[(1-methyl-1H-imidazol-2-yl)methyl]amino}methyl)benzyl]-2,8-diazaspiro[4.5]decane-3-carboxylic acid] | 11.3 | – | – | negative
CCC(CC)N1CCC2(CC1)C[C@@H](C(N)=O)N(Cc1ccc(CN(Cc3ncc[nH]3)Cc3ncc[nH]3)cc1)C2 [c, (3S)-2-(4-{[bis(1H-imidazol-2-ylmethyl)amino]methyl}benzyl)-8-(1-ethylpropyl)-2,8-diazaspiro[4.5]decane-3-carboxyamide] | – | 7 | – | –
O=C(O)c1cc(CN(Cc2ncc[nH]2)Cc2ncc[nH]2)ccc1CN1CCC2(CCN(C3CCCCC3)CC2)C1 [d, 5-{[bis(1H-imidazol-2-ylmethyl)amino]methyl}-2-[(8-cyclohexyl-2,8-diazaspiro[4.5]deca-2-yl)methyl]benzenecarboxylic acid] | – | 5 | – | –
CCC(CC)N1CCC2(CC1)CN(Cc1ccc(CN(Cc3ncc[nH]3)Cc3ncc[nH]3)cc1)CC2C(=O)O (centres unmarked) [e, 2-(4-{[bis(1H-imidazol-2-ylmethyl)amino]methyl}benzyl)-8-(1-ethylpropyl)-2,8-diazaspiro[4.5]decane-4-carboxylic acid] | – | 17 | – | –
CC(C)CN1CCC2(CCN(Cc3ccc(CN(Cc4ncc[nH]4)Cc4ncc[nH]4)cc3)C2)CC1C(=O)O (centres unmarked) [g, 2-(4-{[bis(1H-imidazol-2-ylmethyl)amino]methyl}benzyl)-8-isobutyl-2,8-diazaspiro[4.5]decane-7-carboxylic acid] | – | 2 | – | –
CCC(CC)N1CC2(CCN(Cc3ccc(CN(Cc4ncc[nH]4)Cc4ncc[nH]4)cc3)CC2)CC1C(=O)O (centres unmarked) [h, 8-(4-{[bis(1H-imidazol-2-ylmethyl)amino]methyl}benzyl)-2-(1-ethylpropyl)-2,8-diazaspiro[4.5]decane-3-carboxylic acid] | – | 1.2 | – | –
CCCN(CC)CCCCN(CC(=O)O)Cc1ccc(CN(Cc2ncc[nH]2)Cc2nccn2C)cc1 [i] | – | 3 | – | –
CCOC(=O)C1CC2(CCN(Cc3ccc(C(=O)N(Cc4ncc[nH]4)Cc4ncc[nH]4)cc3)CC2)CN1C1CCCCC1 (centres unmarked) [j] | – | <1 | – | –
COC(=O)c1cc(CN(Cc2ncc[nH]2)Cc2ncc[nH]2)ccc1CN1CCC2(CCN(Cc3sccc3C)CC2)C1 [k] | – | 14 | – | –

Further lines, with some results ahead:

IC50 [1] [nM] | T90 [3] [h] | IC90 value (concentration showing a 90% inhibitory ratio of HIV-1 reverse transcriptase activity) [4] [nM] | Compound | phospholipidosis induction activity (determination) [2]
3.3 | – | 0.27 | CCC(CC)N1CCC2(CC1)C[C@H](C(=O)O)N(Cc1ccc(CN(Cc3ncc[nH]3)Cc3ncc[nH]3)cc1)C2 [Example 32(6), (3R)-2-(4-{[bis(1H-imidazol-2-ylmethyl)amino]methyl}benzyl)-8-(1-ethylpropyl)-2,8-diazaspiro[4.5]decane-3-carboxylic acid] | negative
11.1 | – | – | CCC(CC)N1CCC2(CC1)C[C@@H](C(=O)O)N(Cc1ccc(CN(Cc3ncc[nH]3)Cc3nccn3C)cc1)C2 [Example 37(7), (3S)-8-(1-ethylpropyl)-2-[4-({(1H-imidazol-2-ylmethyl)[(1-methyl-1H-imidazol-2-yl)methyl]amino}methyl)benzyl]-2,8-diazaspiro[4.5]decane-3-carboxylic acid] | negative
– | 12 | – | CCC(CC)N1CCC2(CCN(Cc3ccc(CN(Cc4ncc[nH]4)Cc4ncc[nH]4)cc3)C2)CC1 [b, 1-(4-{[8-[1-ethylpropyl]-2,8-diazaspiro[4.5]deca-2-yl)methyl}phenyl]-N,N-bis(1H-imidazol-2-ylmethyl)methaneamine] | –
– | 6 | – | CCC(CC)N1CCC2(CC1)CCN(Cc1ccc(CN(Cc3ncc[nH]3)Cc3ncc[nH]3)cc1)C2C(=O)O (centres unmarked) [f, 2-(4-{[bis(1H-imidazol-2-ylmethyl)amino]methyl}benzyl)-8-(1-ethylpropyl)-2,8-diazaspiro[4.5]decane-1-carboxylic acid] | –
– | 4 | – | O=C(O)Cn1ccnc1CN(Cc1ccc(CN2CCC3(CCN(C4CCCCC4)CC3)C2)cc1)Cc1ncc[nH]1 [l] | –
– | 4 | – | CCC(CC)N1CCC2(CCN(CCCn3ccnc3CN(Cc3cccc(CC(=O)O)c3)Cc3ncc[nH]3)C2)CC1 [m] | –
